Reference: patent US20260262643A1, “HERBICIDAL BENZOXAZINES” (FMC CORPORATION, priority 2022, published 2026)

Tests used:
[1] = test system: ryegrass, Italian; assay: Test C postemergence; assay type: in vivo, Lolium multiflorum; settings: 10 days
How it was run: (§1)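 Visual injury ratings on a 0–100 scale (100 = complete control) were made against untreated controls 10 days after treatment in the greenhouse. Compounds, formulated with surfactant in non-phytotoxic solvent, were sprayed on soil preemergence or onto one- to two-leaf plants 2–10 cm tall postemergence.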

[2] = test system: soybean; assay: Test C preemergence; assay type: in vivo, Glycine max; settings: for Soybean plant response rating: preemergence, 0 to 100 scale (0 no effect, 100 complete control)
How it was run: as §1

[3] = test system: pigweed, palmer; assay: Test C preemergence; assay type: in vivo, Amaranthus palmeri; settings: for Pigweed, Palmer plant response rating: preemergence, 0 to 100 scale (0 no effect, 100 complete control)
How it was run: as §1

[4] = test system: oat, wild; assay: Test C preemergence; assay type: in vivo, Avena fatua; settings: for Oat, Wild plant response rating: preemergence, 0 to 100 scale (0 no effect, 100 complete control)
How it was run: as §1

[5] = test system: ducksalad; assay: Test D flooded paddy test; assay type: in vivo, Heteranthera limosa; settings: 250 g ai/ha, applied to paddy water, visual rating after 13 to 14 days, scale 0 to 100 (0 no effect, 100 complete control)
How it was run: (§2)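 Visual ratings from 0, meaning no effect, to 100, meaning complete control, were assigned against untreated controls 13 to 14 days after compounds were added to the floodwater of pots kept 3 cm deep, with plants at the 2-leaf stage.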

[6] = test system: ryegrass, Italian; assay: Test C preemergence; assay type: in vivo, Lolium multiflorum; settings: for Ryegrass, Italian plant response rating: preemergence, 0 to 100 scale (0 no effect, 100 complete control)
How it was run: as §1

[7] = test system: ragweed; assay: Test C postemergence; assay type: in vivo, Ambrosia artemisiifolia; settings: 10 days
How it was run: as §1

[8] = test system: wheat; assay: Test C preemergence; assay type: in vivo, Triticum aestivum; settings: for Wheat plant response rating: preemergence, 0 to 100 scale (0 no effect, 100 complete control)
How it was run: as §1

[9] = test system: green foxtail; assay: Test C postemergence; assay type: in vivo, Setaria viridis; settings: 10 days
How it was run: as §1

[10] = test system: barnyardgrass; assay: Test C postemergence; assay type: in vivo, Echinochloa crusgalli; settings: 10 days
How it was run: as §1

[11] = test system: blackgrass; assay: Test C postemergence; assay type: in vivo, Alopecurus myosuroides; settings: 10 days
How it was run: as §1

[12] = test system: kochia; assay: Test C preemergence; assay type: in vivo, Bassia scoparia; settings: for Kochia plant response rating: preemergence, 0 to 100 scale (0 no effect, 100 complete control)
How it was run: as §1

[13] = test system: corn; assay: Test C preemergence; assay type: in vivo, Zea mays; settings: for Corn plant response rating: preemergence, 0 to 100 scale (0 no effect, 100 complete control)
How it was run: as §1

[14] = test system: horseweed; assay: Test C postemergence; assay type: in vivo, Erigeron canadensis; settings: 10 days
How it was run: as §1

[15] = test system: blackgrass; assay: Test C preemergence; assay type: in vivo, Alopecurus myosuroides; settings: for Plant response rating, Blackgrass: Preemergence; for Blackgrass plant response rating: preemergence
How it was run: as §1

[16] = test system: barnyardgrass; assay: Test D flooded paddy test; assay type: in vivo, Echinochloa crus-galli; settings: 250 g ai/ha, applied to paddy water, visual rating after 13 to 14 days, scale 0 to 100 (0 no effect, 100 complete control)
How it was run: as §2

[17] = test system: ragweed; assay: Test C preemergence; assay type: in vivo, Ambrosia artemisiifolia; settings: for Ragweed plant response rating: preemergence, 0 to 100 scale (0 no effect, 100 complete control)
How it was run: as §1

[18] = test system: corn; assay: Test C postemergence; assay type: in vivo, Zea mays; settings: 10 days
How it was run: as §1

[19] = test system: barnyardgrass; assay: Test C preemergence; assay type: in vivo, Echinochloa crusgalli; settings: for Plant response rating, Barnyardgrass: Preemergence; for Barnyardgrass plant response rating: preemergence
How it was run: as §1

[20] = test system: galium; assay: Test C postemergence; assay type: in vivo, Galium aparine; settings: 10 days
How it was run: as §1

[21] = test system: sedge, umbrella; assay: Test D flooded paddy test; assay type: in vivo, Cyperus difformis; settings: 250 g ai/ha, applied to paddy water, visual rating after 13 to 14 days, scale 0 to 100 (0 no effect, 100 complete control)
How it was run: as §2

[22] = test system: green foxtail; assay: Test C preemergence; assay type: in vivo, Setaria viridis; settings: for Foxtail, Green plant response rating: preemergence, 0 to 100 scale (0 no effect, 100 complete control)
How it was run: as §1

[23] = test system: wheat; assay: Test C postemergence; assay type: in vivo, Triticum aestivum; settings: 10 days
How it was run: as §1

[24] = test system: kochia; assay: Test C postemergence; assay type: in vivo, Bassia scoparia; settings: 10 days
How it was run: as §1

[25] = test system: oat, wild; assay: Test C postemergence; assay type: in vivo, Avena fatua; settings: 10 days
How it was run: as §1

[26] = test system: pigweed, palmer; assay: Test C postemergence; assay type: in vivo, Amaranthus palmeri; settings: 10 days
How it was run: as §1

[27] = test system: soybean; assay: Test C postemergence; assay type: in vivo, Glycine max; settings: 10 days
How it was run: as §1

[28] = test system: rice; assay: Test D flooded paddy test; assay type: in vivo, Oryza sativa; settings: 250 g ai/ha, applied to paddy water, visual rating after 13 to 14 days, scale 0 to 100 (0 no effect, 100 complete control)
How it was run: as §2

[29] = 125 g ai/ha, postemergence, 0 to 100 scale, 0 no effect, 100 complete control
[30] = Postemergence, 500 g ai/ha, visual 0 to 100 scale (0 no effect, 100 complete control)
[31] = 500 g ai/ha, visual rating after 10 days, 0 to 100 scale (0 no effect, 100 complete control)
[32] = Test C, 125 g ai/ha, 0 to 100 scale (0 no effect, 100 complete control)
[33] = 500 g ai/ha, postemergence, 0 to 100 scale (0 no effect, 100 complete control)
[34] = Postemergence, 125 g ai/ha, 0 to 100 scale (0 no effect, 100 complete control)
[35] = Preemergence, 125 g ai/ha, 0 to 100 scale, 0 no effect, 100 complete control
[36] = 500 g ai/ha, 0 to 100 scale (0 no effect, 100 complete control)
[37] = 125 g ai/ha, 0 to 100 scale, 0 no effect, 100 complete control

COc1ccc(-n2cnc(C(C)C)n2)cc1C(=O)N1C[C@H](C)Oc2c(F)cccc21 [Compound 269]
Plant response rating, Ryegrass, Italian [1, 29]: 100
Soybean plant response rating ([2]; 500 g ai/ha): 90
Soybean plant response rating ([2]; Test C, 125 g ai/ha): 90
Pigweed, Palmer plant response rating ([3]; 500 g ai/ha): 100
Pigweed, Palmer plant response rating ([3]; Test C, 125 g ai/ha): 100
Oat, Wild plant response rating ([4]; 500 g ai/ha): 90
Oat, Wild plant response rating ([4]; Test C, 125 g ai/ha): 60
Plant response rating, Ducksalad (Flood) [5]: 100
Ryegrass, Italian plant response rating ([6]; 500 g ai/ha): 100
Ryegrass, Italian plant response rating ([6]; Test C, 125 g ai/ha): 100
Plant response rating, Ragweed [7, 29]: 70
Wheat plant response rating ([8]; 500 g ai/ha): 100
Wheat plant response rating ([8]; Test C, 125 g ai/ha): 100
Plant response rating, Foxtail, Green [9, 29]: 90
Plant response rating, Foxtail, Green [9, 30]: 90
Plant response rating, Barnyardgrass [10, 29]: 80
Plant response rating, Barnyardgrass [10, 30]: 100
Plant response rating, Blackgrass [11, 29]: 80
Plant response rating, Blackgrass [11, 30]: 90
Kochia plant response rating ([12]; 500 g ai/ha): 100
Kochia plant response rating ([12]; Test C, 125 g ai/ha): 90
Corn plant response rating ([13]; 500 g ai/ha): 90
Corn plant response rating ([13]; Test C, 125 g ai/ha): 20
Plant response rating, Horseweed [14, 29]: 20
Plant response rating, Horseweed [14, 30]: 90
Plant response rating, Blackgrass [15, 31]: 90
Blackgrass plant response rating [15, 32]: 90
Plant response rating, Barnyardgrass (Flood) [16]: 45
Ragweed plant response rating ([17]; 500 g ai/ha): 100
Ragweed plant response rating ([17]; Test C, 125 g ai/ha): 100
Plant response rating, Corn [18, 29]: 80
Plant response rating, Corn [18, 30]: 100
Plant response rating, Barnyardgrass [19, 31]: 100
Barnyardgrass plant response rating [19, 32]: 100
Plant response rating, Galium [20, 29]: 90
Plant response rating, Galium [20, 30]: 100
Plant response rating, Sedge, Umbrella (Flood) [21]: 98
Foxtail, Green plant response rating ([22]; 500 g ai/ha): 100
Foxtail, Green plant response rating ([22]; Test C, 125 g ai/ha): 100
Plant response rating, Wheat [23, 29]: 80
Plant response rating, Kochia [24, 29]: 80
Plant response rating, Oat, Wild [25, 29]: 80
Plant response rating, Pigweed, Palmer [26, 29]: 90
Plant response rating, Soybean [27, 29]: 100
Plant response rating, Rice (Flood) [28]: 10

Cc1ccc(-n2cnc(C#N)n2)cc1C(=O)N1C[C@H](C)Oc2c(Cl)cccc21 [Compound 363]
Plant response rating, Ryegrass, Italian [1, 33]: 50
Plant response rating, Ryegrass, Italian [1, 34]: 40
Soybean plant response rating ([2]; 500 g ai/ha): 0
Plant response rating, Soybean [2, 35]: 20
Pigweed, Palmer plant response rating ([3]; 500 g ai/ha): 100
Plant response rating, Pigweed, Palmer [3, 35]: 80
Oat, Wild plant response rating ([4]; 500 g ai/ha): 0
Plant response rating, Oat, Wild [4, 35]: 0
Plant response rating, Ducksalad (Flood) [5]: 0
Ryegrass, Italian plant response rating ([6]; 500 g ai/ha): 70
Plant response rating, Ryegrass, Italian [6, 35]: 30
Plant response rating, Ragweed [7, 33]: 50
Plant response rating, Ragweed [7, 34]: 0
Wheat plant response rating ([8]; 500 g ai/ha): 0
Plant response rating, Wheat [8, 35]: 0
Plant response rating, Foxtail, Green [9, 33]: 50
Plant response rating, Foxtail, Green [9, 34]: 30
Plant response rating, Barnyardgrass [10, 33]: 50
Plant response rating, Barnyardgrass [10, 34]: 20
Plant response rating, Blackgrass [11, 33]: 60
Plant response rating, Blackgrass [11, 34]: 30
Kochia plant response rating ([12]; 500 g ai/ha): 0
Plant response rating, Kochia [12, 35]: 0
Corn plant response rating ([13]; 500 g ai/ha): 0
Plant response rating, Corn [13, 35]: 0
Plant response rating, Horseweed [14, 33]: 0
Plant response rating, Horseweed [14, 34]: 0
Blackgrass plant response rating [15, 36]: 30
Plant response rating, Blackgrass [15, 37]: 0
Plant response rating, Barnyardgrass (Flood) [16]: 0
Ragweed plant response rating ([17]; 500 g ai/ha): 80
Plant response rating, Ragweed [17, 35]: 20
Plant response rating, Corn [18, 33]: 10
Plant response rating, Corn [18, 34]: 10
Barnyardgrass plant response rating [19, 36]: 60
Plant response rating, Barnyardgrass [19, 37]: 40
Plant response rating, Galium [20, 33]: 100
Plant response rating, Galium [20, 34]: 100
Plant response rating, Sedge, Umbrella (Flood) [21]: 0
Foxtail, Green plant response rating ([22]; 500 g ai/ha): 100
Plant response rating, Foxtail, Green [22, 35]: 100
Plant response rating, Wheat [23, 33]: 20
Plant response rating, Wheat [23, 34]: 20
Plant response rating, Kochia [24, 33]: 80
Plant response rating, Kochia [24, 34]: 40
Plant response rating, Oat, Wild [25, 33]: 20
Plant response rating, Oat, Wild [25, 34]: 0
Plant response rating, Pigweed, Palmer [26, 33]: 90
Plant response rating, Pigweed, Palmer [26, 34]: 70
Plant response rating, Soybean [27, 33]: 100
Plant response rating, Soybean [27, 34]: 100
Plant response rating, Rice (Flood) [28]: 0
